Measured values published in PMC7915902, “Preclinical Evaluation of [^18F]FACH in Healthy Mice and Piglets: An ^18F-Labeled Ligand for Imaging of Monocarboxylate Transporters with PET” (International Journal of Molecular Sciences, 2021).
Several values for one entry are separate records, joined by “and”; a condition that tells them apart may be missing. Equal values may be shown once.

Experiments:
MCTs [1] = assay: Dynamic PET/MRI in mice with pre-treatment; type: in vivo, mouse; details: mice, PET
Experimental: The biodistribution of [^18F]FACH in mice was assessed by small animal PET (Nanoscan, Mediso, Budapest, Hungary) with dynamic 60 min emission recordings, followed by T1 weighted GRE MR (TR = 15.0 ms, TE = 2.4 ms, FA = 25°) imaging for anatomical correlations and attenuation correction. The mice (n = 20) weighing 32.2 ± 2.9 g were anaesthetised with 2% isoflurane in 60% oxygen, and placed on a thermostatically heated animal bed. The animals then received i.v. injections of 0.9% saline (control), reference compound (10 mg/kg), or α-CCA-Na (25 mg/kg) ten min prior or 20 min after (displacement studies) [^18F]FACH administration (2.3–8.6 MBq, 0.5–11.2 nmol/kg). List mode PET data were binned as a series of attenuation-corrected sinogram frames (12 × 10 s, 6 × 30 s, 5 × 60 s and 10 × 300 s) and were reconstructed by Ordered Subset Expectation Maximization (OSEM3D) with four iterations, six subsets and a voxel size of 0.4 mm³ (Nucline v2.01, Mediso).
The analysis of reconstructed datasets was performed with PMOD software (v4.103, PMOD Technologies LLC, Zurich, Switzerland).
Data are shown in mean ± standard deviation (SD). Group differences were tested by Student’s t-test, with p < 0.05 designated as significant. Area Under the Curves (AUCs) and corresponding 95% confidence intervals (CI95%s) were calculated with GraphPad Prism (v.8.2) following the assumptions described by Gagnon et al..

MCTs [2] = assay: Compartmental kinetic modelling of PET data in piglets; type: in vivo, piglet; details: piglets; for K1 / VT / k2: 1-TCM, control; for BPND: (VT(control)/VT(pre-treated)) − 1; for K1 (representative 1-TCM curve fit) / k2 (representative 1-TCM curve fit): control study, Figure S12
Experimental: Table 4 includes the results of 1-tissue-compartment kinetic modelling (1-TCM) of [^18F]FACH in the kidney cortex and the liver of the control and pre-treated mouse groups (α-CCA-Na and reference compound). […] The BPND was estimated as the ratio of [VT(control)/VT(pre-treatment)] − 1.
Kinetic analysis of reconstructed datasets was performed with PMOD software. First, image derived arterial input functions (IDIFs) were obtained from the left ventricle in mice and from an artery close to the kidney in piglet studies. IDIFs were corrected for partial volume effects, plasma fraction from hematocrit values (individually determined for each piglet directly before PET imaging; for mice set to 0.51 according to CD-1 Mouse Hematology sheet from Charles River Laboratories, 2011) and radio-metabolites (measured for piglets, and set to zero for mice). Tri-exponential metabolite-corrected fitted input functions were used for one and two tissue compartment modelling (1-TCM/2-TCM) of time activity curves (TACs) in tissue volumes of interest (VOIs). For both species the specific blood volume was set to 0.15 mL g^−1 in the kidney cortex and 0.128 mL g^−1 in the liver, according to published values.

SMCT1 = system: SMCT1; design: method as in PMID 31017677; details: [14C]nicotinate uptake assay; read-out: IC50 towards SMCT1; cited from earlier work
MCT4 = system: MCT4; design: method as in PMID 31017677; details: L-[14C]lactate uptake, MDA-MB231 cells; read-out: IC50 towards MCT4; cited from earlier work
MCTs [3] = assay: Ex vivo biodistribution in mice; design: species or system mouse; details: for SUV adipose tissue / SUV adrenal gland / SUV bladder / SUV blood / SUV brain / SUV caecum / SUV femur / SUV gall bladder / SUV heart / SUV kidney / SUV large intestine / SUV liver / SUV lung / SUV ovar / SUV pancreas / SUV plasma / SUV small intestine / SUV spleen / SUV stomach / SUV urine: ex vivo, control
Experimental: Adult mice (28 to 39 g bodyweight) under isoflurane anesthesia were pre-treated by i.v. injection of saline as control (n = 3 for each time point) or 25 mg/kg α-CCA-Na (n = 3 for each time point) ten min before i.v. injection of [^18F]FACH (0.53 ± 0.06 MBq, 0.14 to 0.29 pmol/g bodyweight). The animals were euthanized by anesthesia overdose and cervical dislocation at five, 15 and 30 min after i.v. [^18F]FACH administration, and the radioactivity concentrations in harvested tissues were measured by a gamma counter (PerkinElmer), decay-corrected and normalized to the administered dose and tissue weight, and expressed as SUV in their harvested tissues. The red blood cell to plasma ratio was calculated as described by Bower et al.

Which “peak TAC SUV whole blood” value (MCTs [1]; left heart ventricle VOI, all three treatment groups) does the source give for `CCCN(CCC[18F])c1ccc(/C=C(\C#N)C(=O)O)c(OC)c1` [[^18F]FACH, (E)-2-cyano-3-{4-[(3-[^18F]fluoropropyl)(propyl)amino]-2-methoxyphenyl}acrylic acid] here?
Its value is 6.8 ± 1.3.

And the “AUC0–60 min gall bladder” value (MCTs [1]; vehicle pre-treatment)?
The value was 481 SUV min.

And the “AUC0–60 min kidney cortex” value (MCTs [1]; vehicle pre-treatment)?
Its value is 290 SUV min.

What about the “AUC0–60 min liver” value (MCTs [1]; vehicle pre-treatment) of the same compound?
The value was 450 SUV min.

And the “AUC0–60 min small intestine” value (MCTs [1]; vehicle pre-treatment)?
Its value is 99 SUV min.

And the “AUC0–60 min whole blood” value (MCTs [1]; vehicle pre-treatment)?
The value was 59 SUV min.

What about the K1 (MCTs [2]; kidney cortex) of the same compound?
Its K1 is 0.69 ± 0.11 mL/g/min.

What about the VT (MCTs [2]; kidney cortex) of the same compound?
The VT was 11.29 ± 1.47 mL/g.

What about the k2 (MCTs [2]; kidney cortex) of the same compound?
Its k2 is 0.06 ± 0.01 min⁻¹.

What about the BPND (MCTs [2]; kidney cortex) of the same compound?
Its BPND is 5.2.

What about the “K1 (representative 1-TCM curve fit)” value (MCTs [2]; kidney cortex) of the same compound?
The value was 0.82 mL/g/min.

What about the “k2 (representative 1-TCM curve fit)” value (MCTs [2]; kidney cortex) of the same compound?
The value was 0.08 min⁻¹.

And the K1 (MCTs [2]; liver)?
Its K1 is 0.64 ± 0.10 mL/g/min.

What about the VT (MCTs [2]; liver) of the same compound?
The VT was 5.12 ± 1.27 mL/g.

And the k2 (MCTs [2]; liver)?
Its k2 is 0.13 ± 0.05 min⁻¹.

And the BPND (MCTs [2]; liver)?
The BPND was 0.18.

And the “K1 (representative 1-TCM curve fit)” value (MCTs [2]; liver)?
The value was 0.67 mL/g/min.

What about the “k2 (representative 1-TCM curve fit)” value (MCTs [2]; liver) of the same compound?
The value was 0.14 min⁻¹.

And the IC50 (SMCT1)?
The IC50 was 78 µM.

And the IC50 (MCT4)?
The IC50 was 0.0065 µM.

What about the “red blood cell to plasma ratio” value (MCTs [3]; biodistribution studies) of the same compound?
Its value is < 0.1.

What about the SUV adipose tissue (MCTs [3]; 5 min p.i.) of the same compound?
Its SUV adipose tissue is 0.12.

And the SUV adrenal gland (MCTs [3]; 5 min p.i.)?
The SUV adrenal gland was 0.80.

What about the SUV bladder (MCTs [3]; 5 min p.i.) of the same compound?
The SUV bladder was 0.17.

What about the SUV blood (MCTs [3]; 5 min p.i.) of the same compound?
Its SUV blood is 1.85 ± 0.29 and 1.85.

What about the SUV brain (MCTs [3]; 5 min p.i.) of the same compound?
The SUV brain was 0.08.

And the SUV caecum (MCTs [3]; 5 min p.i.)?
The SUV caecum was 0.18.

What about the SUV femur (MCTs [3]; 5 min p.i.) of the same compound?
Its SUV femur is 0.17.

And the SUV gall bladder (MCTs [3]; 5 min p.i.)?
Its SUV gall bladder is 4.61.

What about the SUV heart (MCTs [3]; 5 min p.i.) of the same compound?
Its SUV heart is 0.74.

What about the SUV kidney (MCTs [3]; 5 min p.i.) of the same compound?
The SUV kidney was 7.97.

And the SUV large intestine (MCTs [3]; 5 min p.i.)?
Its SUV large intestine is 0.24.

What about the SUV liver (MCTs [3]; 5 min p.i.) of the same compound?
The SUV liver was 9.65.

And the SUV lung (MCTs [3]; 5 min p.i.)?
Its SUV lung is 0.89 ± 0.12 and 0.89.

What about the SUV ovar (MCTs [3]; 5 min p.i.) of the same compound?
Its SUV ovar is 0.38.

What about the SUV pancreas (MCTs [3]; 5 min p.i.) of the same compound?
Its SUV pancreas is 0.51.

What about the SUV plasma (MCTs [3]; 5 min p.i.) of the same compound?
Its SUV plasma is 3.77 ± 0.57 and 3.77.

And the SUV small intestine (MCTs [3]; 5 min p.i.)?
Its SUV small intestine is 0.56.

What about the SUV spleen (MCTs [3]; 5 min p.i.) of the same compound?
The SUV spleen was 0.37.

And the SUV stomach (MCTs [3]; 5 min p.i.)?
The SUV stomach was 0.16.

And the SUV urine (MCTs [3]; 5 min p.i.)?
Its SUV urine is 0.82.

What about the SUV adipose tissue (MCTs [3]; 15 min p.i.) of the same compound?
The SUV adipose tissue was 0.18.

What about the SUV adrenal gland (MCTs [3]; 15 min p.i.) of the same compound?
Its SUV adrenal gland is 0.94.

And the SUV bladder (MCTs [3]; 15 min p.i.)?
Its SUV bladder is 0.35.

What about the SUV blood (MCTs [3]; 15 min p.i.) of the same compound?
The SUV blood was 0.91.

And the SUV brain (MCTs [3]; 15 min p.i.)?
The SUV brain was 0.04.

And the SUV caecum (MCTs [3]; 15 min p.i.)?
Its SUV caecum is 0.15.

And the SUV femur (MCTs [3]; 15 min p.i.)?
The SUV femur was 0.12.

And the SUV gall bladder (MCTs [3]; 15 min p.i.)?
The SUV gall bladder was 5.36.

What about the SUV heart (MCTs [3]; 15 min p.i.) of the same compound?
The SUV heart was 0.53.

And the SUV kidney (MCTs [3]; 15 min p.i.)?
Its SUV kidney is 12.81.

And the SUV large intestine (MCTs [3]; 15 min p.i.)?
Its SUV large intestine is 0.19.

And the SUV liver (MCTs [3]; 15 min p.i.)?
Its SUV liver is 10.65.

What about the SUV lung (MCTs [3]; 15 min p.i.) of the same compound?
Its SUV lung is 0.59.

And the SUV ovar (MCTs [3]; 15 min p.i.)?
Its SUV ovar is 0.33.

What about the SUV pancreas (MCTs [3]; 15 min p.i.) of the same compound?
The SUV pancreas was 0.44.

And the SUV plasma (MCTs [3]; 15 min p.i.)?
Its SUV plasma is 1.76.

What about the SUV small intestine (MCTs [3]; 15 min p.i.) of the same compound?
The SUV small intestine was 0.66.

What about the SUV spleen (MCTs [3]; 15 min p.i.) of the same compound?
Its SUV spleen is 0.21.

What about the SUV stomach (MCTs [3]; 15 min p.i.) of the same compound?
The SUV stomach was 0.13.

What about the SUV urine (MCTs [3]; 15 min p.i.) of the same compound?
Its SUV urine is 4.32.

What about the SUV adipose tissue (MCTs [3]; 30 min p.i.) of the same compound?
Its SUV adipose tissue is 0.15.

And the SUV adrenal gland (MCTs [3]; 30 min p.i.)?
The SUV adrenal gland was 0.51.

What about the SUV bladder (MCTs [3]; 30 min p.i.) of the same compound?
The SUV bladder was 0.31.

What about the SUV blood (MCTs [3]; 30 min p.i.) of the same compound?
The SUV blood was 0.82 ± 0.05 and 0.82.

What about the SUV brain (MCTs [3]; 30 min p.i.) of the same compound?
Its SUV brain is 0.04.

What about the SUV caecum (MCTs [3]; 30 min p.i.) of the same compound?
Its SUV caecum is 0.19.

And the SUV femur (MCTs [3]; 30 min p.i.)?
The SUV femur was 0.15.

What about the SUV gall bladder (MCTs [3]; 30 min p.i.) of the same compound?
The SUV gall bladder was 10.96.

And the SUV heart (MCTs [3]; 30 min p.i.)?
Its SUV heart is 0.58.

What about the SUV kidney (MCTs [3]; 30 min p.i.) of the same compound?
Its SUV kidney is 15.97 ± 1.07 and 15.97.

And the SUV large intestine (MCTs [3]; 30 min p.i.)?
The SUV large intestine was 0.26.

What about the SUV liver (MCTs [3]; 30 min p.i.) of the same compound?
The SUV liver was 8.48.

What about the SUV lung (MCTs [3]; 30 min p.i.) of the same compound?
The SUV lung was 0.52 ± 0.02 and 0.52.

What about the SUV ovar (MCTs [3]; 30 min p.i.) of the same compound?
Its SUV ovar is 0.32.

What about the SUV pancreas (MCTs [3]; 30 min p.i.) of the same compound?
The SUV pancreas was 0.38.

What about the SUV plasma (MCTs [3]; 30 min p.i.) of the same compound?
Its SUV plasma is 1.69 ± 0.17 and 1.69.

What about the SUV small intestine (MCTs [3]; 30 min p.i.) of the same compound?
Its SUV small intestine is 1.11.

What about the SUV spleen (MCTs [3]; 30 min p.i.) of the same compound?
The SUV spleen was 0.22.

What about the SUV stomach (MCTs [3]; 30 min p.i.) of the same compound?
Its SUV stomach is 0.20.

What about the SUV urine (MCTs [3]; 30 min p.i.) of the same compound?
The SUV urine was 4.57.
